What was measured:
Format in all cases: in vivo, rat
[1] = tested on: hemi-parathyroidectomy model; test: Administration of AXT914 in hemi-parathyroidectomy model (Experimental Schedule 1): serum PTH, calcium, phosphorus, urine calcium/creatinine; conditions: for urine calcium/creatinine ratio: 24 h urine on Day 13
Method: (§1) 9-week-old female Wistar rats were purchased from Koatech Co., Ltd. (Korea), and housed in an SPF room at a temperature of 21 to 23° C. and a humidity of 40 to 60% using a standard cage and under 12 hours cycles of light and darkness. The rats were acclimatized to the room for 1 week while being fed with a standard laboratory feed, and then used in the experiment. All care and experiments of experimental animals were performed following the guidelines by Animal Research Institute of Medical Science at Dongguk University, and the experimental schedule was approved by the Animal Institutional Review Board (AIRB No. 2016-04149 and AIRB No. 2019-07188).
(§2) To construct a post-surgical hypoparathyroidism rat model, 10-week-old rats acclimatized for 1 week were used.
(§3) To identify the parathyroid gland, a photosensitization method using 5-aminolevulinic acid hydrochloride (5-ALA) was performed. Briefly, a 50 mg/mL 5-ALA solution was prepared by suspending a 5-ALA powder (Sigma-Aldrich Korea, 5-aminolevulinic acid, #A3785, purity ≥98%) in a 0.9% NaCl solution. The rats were injected intraperitoneally with 500 mg/kg of the 5-ALA solution and after 2 hours, intramuscularly with Zoletil 50 (Virbac Laboratories, France) (0.1 mL/kg of body weight) and Rompun® (Bayer, Germany) (0.1 mL/kg of body weight). The anesthetized rats were laid down and the anterior neck and chest area were disinfected with povidone-iodine. In the surgical procedure, the trachea and the thyroid glands were exposed by incising the skin longitudinally from the midline of the neck. Both parathyroid glands showing a red fluorescent color were identified using blue light with a wavelength of 405±3 nm (Ergonomic LED Light Sources, Ocean Optics Inc., #LS-405, USA). In the case of the hemi-parathyroidectomy model, only one of both the parathyroid glands was removed. In the case of total parathyroidectomy and auto-transplantation model, both the parathyroid glands were removed, and then cut into small pieces, put into a small pocket made in the right sternocleidomastoid muscle (SCM), and the pocket was sutured with a […].
(§4) AXT914 was obtained by Novartis Pharma AG (Switzerland). The AXT914 was prepared in the form of a microemulsion by the following method. Briefly, after Cremophor RH40 was heated to 65° C. with stirring, the Cremophor RH40, Capmul MCM, triethyl citrate, and ethanol absolute were mixed at a weight ratio of 34.6%, 42%, 8.4%, and 10%, respectively. After a clear solution obtained by stirring the mixture for 1 hour was used as a vehicle and mixed with AXT914 (weight ratio of 5%), the resulting mixture was stirred at an ambient temperature for 8 to 12 hours. A finally obtained microemulsion preconcentrate was diluted 10 folds with deionized water (DW) and mixed vigorously before administration.
Referring to FIG. 1a, rats that had undergone hemi-parathyroidectomy were divided into a vehicle administration group (n=11), an AXT914 administration group 1 (n=10), and an AXT914 administration group 2 (n=11). A sham surgery group (n=9), which had undergone sham surgery, was also prepared. One week after the surgery, the AXT914 prepared in 1-3. was orally administered to the rats once daily for 2 weeks using a zonde needle. 5 mg/kg and 10 mg/kg of the AXT914 were administered to AXT914 administration groups 1 and 2, respectively. The vehicle (a mixture mixed with AXT914 in 1-3.) was orally administered to the vehicle administration group and the sham surgery group. Urine of the rats was collected for 24 hours on Day 13 after the start of drug administration. Blood was collected from the tails of the rats before the administration of drug (baseline) and from the tails of the rats at 0, 30, 120, 240, 360, and 720 minutes on Day 14 after the start of drug administration, and the rats were sacrificed. […]

[2] = tested on: total parathyroidectomy and auto-transplantation model; test: Immunohistochemical staining of transplanted parathyroid tissue in SCM, total parathyroidectomy and auto-transplantation model (Experimental Schedule 3); conditions: Day 18; for expression of Ki67 (marker of cell proliferation) in transplanted parathyroid tissue: between administration groups
Method: as §1, §2, §3, §4
Referring to FIG. 1c, rats that had undergone total parathyroidectomy and auto-transplantation were divided into a vehicle administration group (n=11), an AXT914 administration group 1 (n=11), and an AXT914 administration group 2 (n=11). A sham surgery group (n=7), which had undergone sham surgery, was also prepared. Six days after the surgery, the AXT914 prepared in 1-3. was orally administered to the rats once daily every 5 days weekly for 18 days using a zonde needle, and the rats were sacrificed on Day 18 of the completion of administration and used for analysis. 10 mg/kg and 20 mg/kg of the AXT914 were orally administered to AXT914 administration groups 1 and 2, respectively. The vehicle was orally administered to the vehicle administration group and the sham surgery group. Blood was collected from the tails of the rats before the administration of drug (baseline) and collected from the tails of the rats on Day 18 of the completion of drug administration. A histological analysis was performed by sacrificing the rats to isolate SCMs with parathyroid glands autotransplanted. […]

[3] = tested on: total parathyroidectomy and auto-transplantation model; test: Administration of AXT914 in total parathyroidectomy and auto-transplantation model (Experimental Schedule 2): serum PTH, calcium, phosphorus; conditions: 10 mg/kg oral once daily 3 weeks
Method: as §1, §2, §3, §4
Referring to FIG. 1b, rats that had undergone total parathyroidectomy and auto-transplantation were divided into a vehicle administration group (n=8) and an AXT914 administration group (n=8). A sham surgery group (n=6), which had undergone sham surgery, was also prepared. One week after the surgery, the AXT914 prepared in 1-3. was orally administered to the rats once daily for 3 weeks using a zonde needle, and the rats were sacrificed 1 week after the completion of administration and used for analysis. 10 mg/kg of AXT914 was administered to the AXT914 administration group. The vehicle was orally administered to the vehicle administration group and the sham surgery group. Blood was collected from the tails of the rats before the administration of drug (baseline) and from the tails of the rats on Day 21 and Day 28 after the start of drug administration.
Serum samples obtained by centrifugation of BD Microtainer SSTTM (prod. No. REF 365967, Becton Dickinson) containing blood, and were stored in a −80° C. deep freezer. […]

[4] = tested on: total parathyroidectomy and auto-transplantation model; test: H&E staining of transplanted parathyroid tissue in SCM, total parathyroidectomy and auto-transplantation model (Experimental Schedule 3); conditions: Day 18, vs vehicle administration group
Method: as §1, §2
To identify the parathyroid gland, a photosensitization method using 5-aminolevulinic acid hydrochloride (5-ALA) was performed. Briefly, a 50 mg/mL 5-ALA solution was prepared by suspending a 5-ALA powder (Sigma-Aldrich Korea, 5-aminolevulinic acid, #A3785, purity ≥98%) in a 0.9% NaCl solution. The rats were injected intraperitoneally with 500 mg/kg of the 5-ALA solution and after 2 hours, intramuscularly with Zoletil 50 (Virbac Laboratories, France) (0.1 mL/kg of body weight) and Rompun® (Bayer, Germany) (0.1 mL/kg of body weight). […]

[5] = 10 mg/kg oral 5 days weekly for 18 days, vs vehicle administration group
[6] = 20 mg/kg oral 5 days weekly for 18 days, vs vehicle administration group
[7] = Day 21, vs vehicle administration group
[8] = Day 28 (7 days after drug discontinuation), vs vehicle administration group

C#CCOc1ccc2c(c1)c(-c1ccc(C(C)C)cc1)nc(=O)n2Cc1ccc(Br)cc1 [AXT914]
serum PTH level ([1]; 5 mg/kg oral once daily 2 weeks (group 1), Day 14, 120 minutes, vs vehicle administration group): higher than that of the vehicle administration group
serum PTH level ([1]; 5 mg/kg oral once daily 2 weeks (group 1), Day 14, vs sham surgery group): no statistical difference from the sham surgery group
serum calcium level ([1]; 5 mg/kg oral once daily 2 weeks, Day 14, all times, vs vehicle administration group): significantly higher calcium levels than those of the vehicle administration group
serum phosphorus level ([1]; 5 mg/kg oral once daily 2 weeks, Day 14, vs sham surgery group): no statistical difference from the sham surgery group
serum calcium level ([1]; 5 mg/kg oral once daily 2 weeks, Day 14 at 0, 30 and 720 minutes, vs sham surgery group): no statistical difference from those of the sham surgery group
serum phosphorus level ([1]; 5 mg/kg oral once daily 2 weeks, Day 14 at 30, 120 and 360 minutes, vs vehicle administration group): significantly lower
urine calcium/creatinine ratio ([1]; 5 mg/kg oral once daily, vs sham surgery group): no difference between the sham surgery group and the AXT914 administration groups
urine calcium/creatinine ratio ([1]; 5 mg/kg oral once daily, vs vehicle administration group): vehicle administration group had a significantly higher urine calcium/creatinine ratio than the sham surgery group and the AXT914 administration groups
serum PTH level ([1]; 10 mg/kg oral once daily 2 weeks (group 2), Day 14, all times, vs the other groups): significantly higher than those in the other groups
serum calcium level ([1]; 10 mg/kg oral once daily 2 weeks, Day 14, all times, vs vehicle administration group): significantly higher calcium levels than those of the vehicle administration group
serum phosphorus level ([1]; 10 mg/kg oral once daily 2 weeks, Day 14, vs sham surgery group): no statistical difference from the sham surgery group
serum calcium level ([1]; 10 mg/kg oral once daily 2 weeks, Day 14 at 0 and 30 minutes, vs sham surgery group): no statistical difference from those of the sham surgery group
serum phosphorus level ([1]; 10 mg/kg oral once daily 2 weeks, Day 14 at 30, 240, 360 and 720 minutes, vs vehicle administration group): significantly lower
urine calcium/creatinine ratio ([1]; 10 mg/kg oral once daily, vs sham surgery group): no difference between the sham surgery group and the AXT914 administration groups
urine calcium/creatinine ratio ([1]; 10 mg/kg oral once daily, vs vehicle administration group): vehicle administration group had a significantly higher urine calcium/creatinine ratio than the sham surgery group and the AXT914 administration groups
expression of Ki67 (marker of cell proliferation) in transplanted parathyroid tissue ([2]; 10 mg/kg oral 5 days weekly for 18 days): not different between the administration groups
FGF2 positive cells in transplanted parathyroid tissue [2, 5]: not statistically significant, but showed an increasing pattern
increase in the expression of VEGFA in transplanted parathyroid tissue [2, 5]: about 6 fold
increase of expression level of PTH in transplanted parathyroid tissue [2, 5]: about 2 fold
increase of number of CD31 positive cells in transplanted parathyroid tissue [2, 5]: about 3 folds
expression of Ki67 (marker of cell proliferation) in transplanted parathyroid tissue ([2]; 20 mg/kg oral 5 days weekly for 18 days): not different between the administration groups
FGF2 positive cells in transplanted parathyroid tissue [2, 6]: not statistically significant, but showed an increasing pattern
expression of MCL1 in transplanted parathyroid tissue [2, 6]: not statistically significant in AXT914 administration group 2, but showed an increasing pattern
increase in the expression of VEGFA in transplanted parathyroid tissue [2, 6]: about 10 fold
increase of expression level of PTH in transplanted parathyroid tissue [2, 6]: about 2 fold
increase of number of CD31 positive cells in transplanted parathyroid tissue [2, 6]: about 4.5 folds
serum PTH level ([3]; Day 21, vs sham surgery group): lower than those in the sham surgery group
serum calcium level ([3]; Day 21, vs sham surgery group): no difference from those in the sham surgery group
serum phosphorus level ([3]; Day 21, vs sham surgery group): no difference from those in the sham surgery group
serum PTH level [3, 7]: significantly higher than those in the vehicle administration group
serum calcium level [3, 7]: significantly higher than those in the vehicle administration group
serum phosphorus level [3, 7]: significantly lower than those in the vehicle administration group
serum calcium level ([3]; Day 28 (7 days after drug discontinuation), vs sham surgery group): lower than those in the sham surgery group
serum calcium level [3, 8]: still higher than those in the vehicle administration group
serum phosphorus level [3, 8]: lower than those in the vehicle administration group, but there was no statistical difference
area increase of transplanted parathyroid tissue (H&E staining) ([4]; 10 mg/kg oral 5 days weekly for 18 days (group 1)): 36%
area increase of transplanted parathyroid tissue (H&E staining) ([4]; 20 mg/kg oral 5 days weekly for 18 days (group 2), significant): about 3 times

Source: US12708625B2, “Pharmaceutical composition for improving or treating post-surgical hypoparathyroidism and treatment method using the same” (DONGGUK UNIVERSITY INDUSTRY-ACADEMIC COOPERATION FOUNDATION, priority 2019, dated 2026)
